The results in this text go back to patent US20250388605A1, “HETEROBIFUNCTIONAL COMPOUNDS AND METHODS OF TREATING DISEASE” (Halda Therapeutics OpCo, Inc., priority 2022, published 2025).

In assay [1] the test system is T-Rex 293 cell line SC3 cells having increased expression of androgen receptor protein due to exposure to doxycycline. Nature of the assay: Cellular growth inhibition, T-Rex 293 SC3 cells with doxycycline (increased androgen receptor expression), CellTiter-Glo. The format is cell-based. To be noted: T-Rex 293 SC3 cells with 10 ng/mL doxycycline (increased androgen receptor expression), 72 hours, CellTiter-Glo 2.0. The procedure, abridged:
(§1)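 Growth inhibition is measured in an inducible AR-expressing T-Rex 293 clone, SC3, cultured with or without 10 ng/mL doxycycline in hormone-depleted medium. Test compounds are applied for 72 hours. GI50 values derive from CellTiter-Glo 2.0 signal fitted by four-parameter regression.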

Another assay relates to T47D cells. Briefly: Cellular Growth Inhibition Assay for T47D Cells (CellTiter-Glo). The note with it: 72 hours. Format: cell-based, human. In a few lines:
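GI50 values derive from four-parameter regression of CellTiter-Glo 2.0 luminescence, using zero luminescence as baseline. Human breast cancer T47D cells (3000/well; DMEM, 10% FBS, 0.2 units/mL insulin) were exposed for 72 h to compound dilutions at 0.5% DMSO, with dosing starting 24 h after seeding.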
In general terms: ATP-based viability assays read luminescence as a measure of living cells.

The subject of a further assay is VCaP cells. Nature of the assay: Cellular growth inhibition assay for VCaP cells, CellTiter-Glo. The format is cell-based, human. The note with it: 72 hours. In a few lines: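 GI50 values come from four-parameter curve fits of luminescence data normalized to a zero baseline. Compound, in medium with 0.5% DMSO, was added one day after plating and left for 72 h before CellTiter-Glo 2.0 addition.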

Assay [2] relates to T-Rex 293 cell line SC3 cells lacking increased expression of androgen receptor protein. Briefly: Cellular growth inhibition, T-Rex 293 SC3 cells without doxycycline (no increased androgen receptor expression), CellTiter-Glo. The format is cell-based. The note with it: T-Rex 293 SC3 cells not exposed to doxycycline (no increased androgen receptor expression), 72 hours. The procedure, abridged:
as §1

For orientation: GI50 means the concentration at which growth is held to half of that of the control. Low values mean greater sensitivity of the cells, high ones lower sensitivity of the cells.

`Cn1cc(-c2cc(S(C)(=O)=O)ccc2Oc2cccc(N3CC(CC4CCN(c5ncc(C(=O)NC6C(C)(C)C(Oc7ccc(C#N)c(Cl)c7)C6(C)C)cn5)CC4)C3)c2F)c2cc[nH]c2c1=O` (centres unmarked) [Compound I-189, N-[3-(3-chloro-4-cyano-phenoxy)-2,2,4,4-tetramethyl-cyclobutyl]-2-[4-[[1-[2-fluoro-3-[2-(6-methyl-7-oxo-1H-pyrrolo[2,3-c]pyridin-4-yl)-4-methylsulfonyl-phenoxy]phenyl]azetidin-3-yl]methyl]-1-piperidyl]pyrimidine-5-carboxamide]: the GI50 in assay [1] was < 500 nM; in the assay with T47D cells (Homo sapiens), < 500 nM; in the assay with VCaP cells (Homo sapiens), > 3000 nM; in assay [2], > 3000 nM.
For the compound `Cn1cc(-c2cc(N)ccc2Oc2cccc(OCCC3CCN(c4ncc(C(=O)N[C@H]5C(C)(C)[C@H](Oc6ccc(C#N)c(Cl)c6)C5(C)C)cn4)CC3)c2F)c2cc[nH]c2c1=O` [Compound I-103], the GI50 in assay [1] is < 500 nM; in the assay with T47D cells (Homo sapiens), 1500 to 3000 nM; with VCaP cells (Homo sapiens), < 500 nM; in assay [2], > 3000 nM.
As to `Cn1cc(-c2cc(C(C)(C)O)ccc2OC2CC3(C2)CN(CCC2CCN(c4ncc(C(=O)NC5C(C)(C)C(Oc6ccc(C#N)c(Cl)c6)C5(C)C)cn4)CC2)C3)c2cc[nH]c2c1=O` (centres unmarked) [Compound I-281, N-[3-(3-chloro-4-cyano-phenoxy)-2,2,4,4-tetramethyl-cyclobutyl]-2-[4-[2-[6-[4-(1-hydroxy-1-methyl-ethyl)-2-(6-methyl-7-oxo-1H-pyrrolo[2,3-c]pyridin-4-yl)phenoxy]-2-azaspiro[3.3]heptan-2-yl]ethyl]-1-piperidyl]pyrimidine-5-carboxamide], the GI50 in assay [1] was < 500 nM; in the assay on T47D cells (Homo sapiens) it was < 500 nM; in the assay with VCaP cells (Homo sapiens) it was < 500 nM; in assay [2] it was 500 to 1500 nM.
As to `Cn1cc(-c2ccccc2Oc2cccc(CCOC3CCN(c4ncc(C(=O)N[C@H]5C(C)(C)[C@H](Oc6ccc(C#N)c(Cl)c6)C5(C)C)cn4)CC3)c2)c2cc[nH]c2c1=O` [Compound I-146], the GI50 was < 500 nM in assay [1], < 500 nM with T47D cells, < 500 nM with VCaP cells and > 3000 nM in assay [2].
In the case of `Cn1cc(-c2cc(C(C)(C)O)ccc2Oc2cccc(N3CCC(CC4CCN(c5ncc(C(=O)N[C@H]6C(C)(C)[C@H](Oc7ccc(C#N)c(Cl)c7)C6(C)C)cn5)CC4)CC3)c2)c2cc[nH]c2c1=O` [Compound I-325], the 50% growth inhibitory concentration (GI50) in assay [1] was < 500 nM; in the assay on T47D cells, < 500 nM; in the assay with VCaP cells, > 3000 nM; in assay [2], > 3000 nM.
Turning to `Cn1cc(-c2cc(C(C)(C)O)ccc2Oc2ccc(N3CC(CC4CCN(c5cnc(C(=O)N[C@H]6C(C)(C)[C@H](Oc7ccc(C#N)c(Cl)c7)C6(C)C)cn5)CC4)C3)nc2)c2cc[nH]c2c1=O` [Compound I-334], the GI50 was < 500 nM in assay [1], < 500 nM with T47D cells (Homo sapiens), < 500 nM in the assay on VCaP cells (Homo sapiens) and > 3000 nM in assay [2].
With `CCS(=O)(=O)c1ccc(Oc2ccc(OC3CC4(C3)CN(c3ncc(C(=O)N[C@H]5C(C)(C)[C@H](Oc6ccc(C#N)c(Cl)c6)C5(C)C)cn3)C4)c(F)c2)c(-c2cn(C)c(=O)c3[nH]ccc23)c1` [Compound I-276], the GI50 (in assay [1]; with T47D cells (Homo sapiens); in the assay on VCaP cells (Homo sapiens); in assay [2]) was < 500 nM throughout.
Regarding `Cn1cc(-c2cc(C(C)(C)O)ccc2Oc2ccc(OC3CCN(c4ncc(C(=O)N[C@H]5C(C)(C)[C@H](Oc6ccc(C#N)c(Cl)c6)C5(C)C)cn4)CC3)nc2)c2cc[nH]c2c1=O` [Compound I-297, N-[3-(3-chloro-4-cyano-phenoxy)-2,2,4,4-tetramethyl-cyclobutyl]-2-[4-[[5-[4-(1-hydroxy-1-methyl-ethyl)-2-(6-methyl-7-oxo-1H-pyrrolo[2,3-c]pyridin-4-yl)phenoxy]-2-pyridyl]oxy]-1-piperidyl]pyrimidine-5-carboxamide], the GI50 (in assay [1]; in the assay with T47D cells (Homo sapiens); in the assay on VCaP cells (Homo sapiens); in assay [2]) was < 500 nM throughout.
As for `CCS(=O)(=O)c1ccc(Oc2ccc(CN3CCC4(CCN(c5ncc(C(=O)N[C@H]6C(C)(C)[C@H](Oc7ccc(C#N)c(Cl)c7)C6(C)C)cn5)C4)C3)c(F)c2)c(-c2cn(C)c(=O)c3[nH]ccc23)c1` (some centres unmarked) [Compound I-272], the GI50 (in assay [1]; in the assay with T47D cells (Homo sapiens); in the assay on VCaP cells (Homo sapiens); in assay [2]) was < 500 nM in each case.
`Cn1cc(-c2cc(C(C)(C)O)ccc2Oc2ccc(CC3CCN(c4ncc(C(=O)N[C@H]5C(C)(C)[C@H](Oc6ccc(C#N)c(Cl)c6)C5(C)C)cn4)CC3)nc2)c2cc[nH]c2c1=O` [Compound I-298, N-[3-(3-chloro-4-cyano-phenoxy)-2,2,4,4-tetramethyl-cyclobutyl]-2-[4-[[5-[4-(1-hydroxy-1-methyl-ethyl)-2-(6-methyl-7-oxo-1H-pyrrolo[2,3-c]pyridin-4-yl)phenoxy]-2-pyridyl]methyl]-1-piperidyl]pyrimidine-5-carboxamide]: the GI50 (in assay [1]; with T47D cells (Homo sapiens); in the assay with VCaP cells (Homo sapiens); in assay [2]) was < 500 nM throughout.
Consider `Cn1cc(-c2cc(C(C)(C)O)ccc2Oc2ccc(N3CC(CC4CCN(c5cnc(C(=O)N[C@H]6C(C)(C)[C@H](Oc7ccc(C#N)c(Cl)c7)C6(C)C)cn5)CC4)C3)cn2)c2cc[nH]c2c1=O` [Compound I-346], for which the GI50 in assay [1] was < 500 nM; with T47D cells (Homo sapiens), < 500 nM; with VCaP cells (Homo sapiens) it was < 500 nM; in assay [2] it was > 3000 nM.
Consider `Cn1cc(-c2cc(C(C)(C)O)ccc2OCC2(C(=O)N3CC(OC4CCN(c5ncc(C(=O)N[C@H]6C(C)(C)[C@H](Oc7ccc(C#N)c(Cl)c7)C6(C)C)cn5)CC4)C3)CC2)c2cc[nH]c2c1=O` [Compound I-267], for which the GI50 was < 500 nM in assay [1], 500 to 1500 nM in the assay with T47D cells, < 500 nM in the assay with VCaP cells and 500 to 1500 nM in assay [2].
As to `Cn1cc(-c2cc(C(C)(C)O)ccc2Oc2ccc(N3CC(CC4CCN(c5ccc(C(=O)N[C@H]6C(C)(C)[C@H](Oc7ccc(C#N)c(Cl)c7)C6(C)C)nc5)CC4)C3)cc2)c2cc[nH]c2c1=O` [Compound I-338], the GI50 is > 3000 nM in assay [1], 500 to 1500 nM in the assay with T47D cells (Homo sapiens), > 3000 nM in the assay on VCaP cells (Homo sapiens) and > 3000 nM in assay [2].
As to `Cn1cc(-c2cc(C(C)(C)O)ccc2Oc2cccc(OC3CC4(C3)CN(c3ncc(C(=O)N[C@H]5C(C)(C)[C@H](Oc6ccc(C#N)c(Cl)c6)C5(C)C)cn3)C4)c2)c2cc[nH]c2c1=O` [Compound I-320], the GI50 (in assay [1]; in the assay with T47D cells; in the assay with VCaP cells; in assay [2]) was < 500 nM each time.
Regarding `Cn1cc(-c2cc(C(C)(C)O)ccc2Oc2cccc(OC3CCC4(CC3)CCN(c3ncc(C(=O)N[C@H]5C(C)(C)[C@H](Oc6ccc(C#N)c(Cl)c6)C5(C)C)cn3)CC4)c2)c2cc[nH]c2c1=O` [Compound I-314], the GI50 was < 500 nM in assay [1], 500 to 1500 nM in the assay with T47D cells, < 500 nM in the assay with VCaP cells and > 3000 nM in assay [2].
Turning to `CCS(=O)(=O)Nc1ccc(Oc2cccc(N3CCN(CC4CCN(c5ncc(C(=O)N[C@H]6C(C)(C)[C@H](Oc7ccc(C#N)c(Cl)c7)C6(C)C)cn5)CC4)CC3)c2)c(-c2cn(C)c(=O)c3[nH]ccc23)c1` [Compound I-37], the GI50 in assay [1] is < 500 nM; in the assay on T47D cells (Homo sapiens), 500 to 1500 nM; in the assay on VCaP cells (Homo sapiens), < 500 nM; in assay [2] it was < 500 nM.
Take `Cn1cc(-c2ccccc2Oc2cccc(OCCC3CCN(c4ncc(C(=O)N[C@H]5C(C)(C)[C@H](Oc6ccc(C#N)c(Cl)c6)C5(C)C)cn4)CC3)c2)c2cc[nH]c2c1=O` [Compound I-102]: the GI50 was < 500 nM in assay [1], 1500 to 3000 nM in the assay on T47D cells (Homo sapiens), < 500 nM in the assay on VCaP cells (Homo sapiens) and 500 to 1500 nM in assay [2].
For `Cn1cc(-c2ccccc2Oc2cccc(OCCN3CCN(c4ncc(C(=O)N[C@H]5C(C)(C)[C@H](Oc6ccc(C#N)c(Cl)c6)C5(C)C)cn4)CC3)c2F)c2cc[nH]c2c1=O` [Compound I-115], the GI50 is < 500 nM in assay [1], 500 to 1500 nM in the assay with T47D cells, < 500 nM in the assay with VCaP cells and < 500 nM in assay [2].
With `Cn1cc(-c2cc(C(C)(C)O)ccc2Oc2ccc(N3CC(CC4CCN(c5ncc(C(=O)N[C@H]6C(C)(C)[C@H](Oc7ccc(C#N)c(Cl)c7)C6(C)C)cn5)CC4)C3)nc2)c2cc[nH]c2c1=O` [Compound I-333, N-[3-(3-chloro-4-cyano-phenoxy)-2,2,4,4-tetramethyl-cyclobutyl]-2-[4-[[1-[5-[4-(1-hydroxy-1-methyl-ethyl)-2-(6-methyl-7-oxo-1H-pyrrolo[2,3-c]pyridin-4-yl)phenoxy]-2-pyridyl]azetidin-3-yl]methyl]-1-piperidyl]pyrimidine-5-carboxamide], the 50% growth inhibitory concentration (GI50) is < 500 nM in assay [1], < 500 nM with T47D cells (Homo sapiens), < 500 nM in the assay with VCaP cells (Homo sapiens) and > 3000 nM in assay [2].
On to `Cn1cc(-c2cc(C(C)(C)O)ccc2O[C@H]2C[C@H](CCC3CCN(c4ncc(C(=O)N[C@H]5C(C)(C)[C@H](Oc6ccc(C#N)c(Cl)c6)C5(C)C)cn4)CC3)C2)c2cc[nH]c2c1=O` [Compound I-310], for which the GI50 (in assay [1]; with T47D cells; in the assay with VCaP cells; in assay [2]) was < 500 nM throughout.
